Where a name gives a salt, the structure may show the parent alone.

The subject of one assay is Acinetobacter baumannii ATCC17978. In words: Antimicrobial susceptibility testing: 90% growth inhibitory concentration (IC90) determination, Iso-Sensitest broth. Particulars: 90% growth inhibitory concentration, Acinetobacter baumannii ATCC17978, Iso-Sensitest broth, OD 600 nm over 16 h; read-out: ATCC17978 IC90. The format is cell-based. The essentials: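 A. baumannii ATCC17978 grown in Iso-Sensitest broth across 10 compound concentrations at 35±2 °C.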
Turning to `Cc1cc(Nc2nccn3c(-c4ccc(OCC#N)c(F)c4F)cnc23)ccc1C(=O)N1CCN(C(=O)C2CNC2)CC1` [Example 504, 2-[4-[8-[4-[4-(azetidine-3-carbonyl)piperazine-1-carbonyl]-3-methylanilino]imidazo[1,2-a]pyrazin-3-yl]-2,3-difluorophenoxy]acetonitrile; formic acid], the IC90 was 0.49 µM.
On the same count and under the same terms, the same measure for `CCc1cc(Nc2nccn3c(-c4ccc(OCC#N)c(F)c4F)cnc23)ccc1C(=O)N1CCN(C(=O)[C@@H]2C[C@@H](O)CN2)CC1` [Example 510, 2-[4-[8-[3-ethyl-4-[4-[(2S,4R)-4-hydroxypyrrolidine-2-carbonyl]piperazine-1-carbonyl]annilino]imidazo[1,2-a]pyrazin-3-yl]-2,3-difluorophenoxy]acetonitrile; formic acid]: 0.55 µM.
In the case of `COc1ccc(-c2cnc3c(Nc4ccc(C(=O)N5CCN(C(=O)[C@H]6CCN6)CC5)c(C)c4)nccn23)cc1F` [Example 522, [4-[(2R)-azetidine-2-carbonyl]piperazin-1-yl]-[4-[[3-(3-fluoro-4-methoxyphenyl)imidazo[1,2-a]pyrazin-8-yl]amino]-2-methylphenyl]methanone; hy-drochloride], the IC90 was found to be 0.37 µM.

The assay is the same for the next values; noted with them: Acinetobacter baumannii, ATCC17978, 16 h, read-out: ATCC17978 IC90, 90% growth inhibitory concentration, Acinetobacter baumannii ATCC17978, Iso-Sensitest broth, OD 600 nm over 16 h.
For `Cc1cc(Nc2nccn3c(-c4ccc(OC(F)F)cc4)cnc23)ccc1C(=O)N1CCN(C(=O)[C@@H]2CCNC[C@H]2O)CC1` [Example 503, [4-[[3-[4-(difluoromethoxy)phenyl]imi-dazo[1,2-a]pyrazin-8-yl]amino]-2-methylphenyl]-[4-[(3S,4R)-3-hydroxypiperidine-4-carbonyl]piperazin-1-yl]methanone], the IC90 is 0.47 µM.
Regarding `Cc1cc(Nc2nccn3c(-c4ccc(OC(F)F)cc4)cnc23)ccc1C(=O)N1CCN(C(=O)N2CCNCC2CO)CC1` (stereo not drawn) [Example 505, [4-[[3-[4-(difluoromethoxy)phenyl]imi-dazo[1,2-a]pyrazin-8-yl]amino]-2-methylphenyl]-[4-[2-(hydroxymethyl)piperazine-1-carbonyl]piperazin-1-yl]methanone], the IC90 stood at 0.5 µM.
On the same count and under the same terms, the result for `Cc1cc(Nc2nccn3c(-c4ccc(OC(F)F)cc4)cnc23)ccc1C(=O)N1CCN(C(=O)C2(C)CCNCC2)CC1` [Example 506, [4-[[3-[4-(difluoromethoxy)phenyl]imi-dazo[1,2-a]pyrazin-8-yl]amino]-2-methylphenyl]-[4-(4-methylpiperidine-4-carbonyl)piperazin-1-yl]methanone; hydrochloride] reads 0.51 µM; that for `Cc1cc(Nc2nccn3c(-c4ccc(OC(F)F)cc4)cnc23)ccc1C(=O)N1CCN(C(=O)[C@H]2CCNC[C@@H]2O)CC1` [Example 507, [4-[[3-[4-(difluoromethoxy)phenyl]imi-dazo[1,2-a]pyrazin-8-yl]amino]-2-methylphenyl]-[4-[(3R,4S)-3-hydroxypiperidine-4-carbonyl]piperazin-1-yl]methanone], 0.51 µM.
On the same count and under the same terms, the result for `Cc1cc(Nc2nccn3c(-c4ccc(OC(F)F)cc4)cnc23)ccc1C(=O)N1CCN(C(=O)[C@H]2CNCCN2)CC1` [Example 508, [4-[[3-[4-(difluoromethoxy)phenyl]imi-dazo[1,2-a]pyrazin-8-yl]amino]-2-methylphenyl]-[4-[(2R)-piperazine-2-carbonyl]piperazin-1-yl]methanone; hydrochloride] reads 0.53 µM; that for `Cc1cc(Nc2nccn3c(-c4ccc(OC(F)F)cc4)cnc23)ccc1C(=O)N1CCN(C(=O)C2(N)CCNCC2)CC1` [Example 509, [4-(4-aminopiperidine-4-carbonyl)piperazin-1-yl]-[4-[[3-[4-(difluoromethoxy)phenyl]imi-dazo[1,2-a]pyrazin-8-yl]amino]-2-methylphenyl]methanone; hy-drochloride], 0.54 µM.
Same read-out and setting: the same measure for `Cc1cc(Nc2nccn3c(-c4ccc(OC(F)F)cc4)cnc23)ccc1C(=O)N1CCN(C(=O)[C@H]2CCNC[C@H]2O)CC1` [Example 511, [4-[[3-[4-(difluoromethoxy)phenyl]imi-dazo[1,2-a]pyrazin-8-yl]amino]-2-methylphenyl]-[4-[(3S,4S)-3-hydroxypiperidine-4-carbonyl]piperazin-1-yl]methanone]: 0.56 µM; for `Cc1cc(Nc2nccn3c(-c4ccc(OC(F)F)cc4)cnc23)ccc1C(=O)N1CCN(C(=O)[C@H]2NCC[C@H]2O)CC1` [Example 512, [4-[[3-[4-(difluoromethoxy)phenyl]imi-dazo[1,2-a]pyrazin-8-yl]amino]-2-methylphenyl]-[4-[(2S,3R)-3-hydroxypyrrolidine-2-carbonyl]piperazin-1-yl]methanone; hydrochloride]: 0.57 µM; for `Cc1cc(Nc2nccn3c(-c4ccc(OC(F)F)cc4)cnc23)ccc1C(=O)N1CCN(C(=O)[C@@H](N)CCCN)CC1` [Example 513, (2S)-2,5-diamino-1-[4-[4-[[3-[4-(difluoromethoxy)phenyl]imi-dazo[1,2-a]pyrazin-8-yl]amino]-2-methylbenzoyl]piperazin-1-yl]pentan-1-one; hydrochloride]: 0.61 µM.
As for `COC(=O)C[C@H](N)C(=O)N1CCN(C(=O)c2ccc(Nc3nccn4c(-c5ccc(OC(F)F)cc5)cnc34)cc2C)CC1` [Example 514, methyl (3S)-3-amino-4-[4-[4-[[3-[4-(difluoromethoxy)phenyl]imi-dazo[1,2-a]pyrazin-8-yl]amino]-2-methylbenzoyl]piperazin-1-yl]-4-oxobutanoate; hydrochloride], the IC90 is 0.63 µM.
On to `COc1ccc(-c2cnc3c(Nc4ccc(C(=O)N5CCN(C(=O)N6CCN[C@H](C(=O)O)C6)CC5)c(C)c4)nccn23)c(F)c1F` [Example 515, (2S)-4-[4-[4-[[3-(2,3-difluoro-4-methoxyphenyl)imidazo[1,2-a]pyrazin-8-yl]amino]-2-methylbenzoyl]piperazine-1-carbonyl]piperazine-2-carboxylic acid; formic acid], for which the IC90 stood at 0.65 µM.
On to `Cc1cc(Nc2nccn3c(-c4ccc(OC(F)F)cc4)cnc23)ccc1C(=O)N1CCN(C(=O)[C@@H]2CCNC[C@@H]2O)CC1` [Example 516, [4-[[3-[4-(difluoromethoxy)phenyl]imi-dazo[1,2-a]pyrazin-8-yl]amino]-2-methylphenyl]-[4-[(3R,4R)-3-hydroxypiperidine-4-carbonyl]piperazin-1-yl]methanone], for which the IC90 stood at 0.65 µM.
Same read-out and setting: the result for `Cc1cc(Nc2nccn3c(-c4ccc(OC(F)F)cc4)cnc23)ccc1C(=O)N1CCN(C(=O)C2(C#N)CCNCC2)CC1` [Example 517, 4-[4-[4-[[3-[4-(difluoromethoxy)phenyl]imi-dazo[1,2-a]pyrazin-8-yl]amino]-2-methylbenzoyl]piperazine-1-carbonyl]piperidine-4-carbonitrile; hydrochloride] reads 0.66 µM.
As to `Cc1cc(Nc2nccn3c(-c4ccc(OC(F)F)cc4)cnc23)ccc1C(=O)N1CCN(C(=O)N2CCNCC2)CC1` [Example 518, [4-[[3-[4-(difluoromethoxy)phenyl]imi-dazo[1,2-a]pyrazin-8-yl]amino]-2-methylphenyl]-[4-(piperazine-1-carbonyl)piperazin-1-yl]methanone; hydrochloride], the IC90 is 0.17 µM.
The same measure, in the same setting: the same measure for `Cc1cc(Nc2nccn3c(-c4ccc(OC(F)F)cc4)cnc23)ccc1C(=O)N1CCN(C(=O)CCN)CC1` [Example 519, 3-amino-1-[4-[4-[[3-[4-(difluoromethoxy)phenyl]imi-dazo[1,2-a]pyrazin-8-yl]amino]-2-methylbenzoyl]piperazin-1-yl]propan-1-one; hydrochloride]: 0.41 µM; for `Cc1cc(Nc2nccn3c(-c4ccc(OC(F)F)cc4)cnc23)ccc1C(=O)N1CCN(C(=O)NCCN(C)C)CC1` [Example 520, 4-[4-[[3-[4-(difluoromethoxy)phenyl]imi-dazo[1,2-a]pyrazin-8-yl]amino]-2-methylbenzoyl]-N-[2-(dimethylamino)ethyl]pipera-zine-1-carboxamide]: 0.31 µM; for `Cc1cc(Nc2nccn3c(-c4ccc(OC(F)F)cc4)cnc23)ccc1C(=O)N1CCN(C(=O)[C@H]2CCN2)CC1` [Example 521, [4-[(2R)-azetidine-2-carbonyl]piperazin-1-yl]-[4-[[3-[4-(difluoromethoxy)phenyl]imi-dazo[1,2-a]pyrazin-8-yl]amino]-2-methylphenyl]methanone; hy-drochloride]: 0.37 µM.
Still for that read-out and setting: the result for `Cc1cc(Nc2nccn3c(-c4ccc(OC(F)F)cc4)cnc23)ccc1C(=O)N1CCN(C(=O)C2CCNCC2O)CC1` (stereo not drawn) [Example 523, [4-[[3-[4-(difluoromethoxy)phenyl]imi-dazo[1,2-a]pyrazin-8-yl]amino]-2-methylphenyl]-[4-(3-hydroxypiperidine-4-carbonyl)piperazin-1-yl]methanone; hydrochloride] reads 0.39 µM; that for `CNCCNC(=O)N1CCN(C(=O)c2ccc(Nc3nccn4c(-c5ccc(OC(F)F)cc5)cnc34)cc2C)CC1` [Example 524, 4-[4-[[3-[4-(difluoromethoxy)phenyl]imi-dazo[1,2-a]pyrazin-8-yl]amino]-2-methylbenzoyl]-N-[2-(methylamino)eth-yl]piperazine-1-carboxamide; hydrochloride], 0.47 µM; that for `Cc1cc(Nc2nccn3c(-c4ccc(OC(F)F)cc4)cnc23)ccc1C(=O)N1CCN(C(=O)[C@@H](N)CCC(N)=O)CC1` [Example 525, (4S)-4-amino-5-[4-[4-[[3-[4-(difluoromethoxy)phenyl]imi-dazo[1,2-a]pyrazin-8-yl]amino]-2-methylbenzoyl]piperazin-1-yl]-5-oxopentanamide; hydrochlo-ride], 0.51 µM.
The same measure, in the same setting: the result for `Cc1cc(Nc2nccn3c(-c4ccc(OC(F)F)cc4)cnc23)ccc1C(=O)N1CCN(C(=O)[C@@H](N)CO)CC1` [Example 526, (2S)-2-amino-1-[4-[4-[[3-[4-(difluoromethoxy)phenyl]imi-dazo[1,2-a]pyrazin-8-yl]amino]-2-methylbenzoyl]piperazin-1-yl]-3-hydroxypropan-1-one; hydrochloride] reads 0.56 µM.

These data come from patent publication US20230011869A1 (Hoffmann-La Roche Inc., priority 2018, published 2023).
